Measurements as given in patent US20200163882A1, “Solid Pharmaceutical Compositions Of Androgen Receptor Antagonists” (Lek Pharmaceuticals d.d., priority 2014, published 2020).

Legend:
[1] = Solubility of Enzalutamide in surfactants; assay type: physicochemical
Experimental: In the first reference test formulation, 12 mg of Enzalutamide was completely dissolved in 0.27 ml of Labrasol. In second reference test formulations 12 mg of Enzalutamide is completely dissolved in 0.27 ml of Tween 80. In third reference test formulation, 12 mg of Enzalutamide is completely dissolved in 0.27 ml of Tween 80 and 0.15 mg of HPMC has been added. It should be noted that solubility of Enzalutamide is about the same in Tween and in Labrasol ([…] of Enzalutamide per 1 ml of either Tween 80 or Labrasol). The three test formulations were dissolved in 15 ml of pH 6.8 phosphate buffer and Enzalutamide concentration was measured at time points from 10 to 360 minutes.

[2] = cited from earlier work; for Solubility in water: water between pH 1 and 11
[3] = physiologic pH range; cited from earlier work
[4] = first clinical trials, similar daily doses; cited from earlier work

Solubility of Enzalutamide in Labrasol ([1]; Labrasol)	Solubility of Enzalutamide in Tween 80 ([1]; Tween 80)	Structure (SMILES)	Solubility in N-methyl-2-pyrrolidone (NMP) [2]	Solubility in absolute ethanol [2]	Solubility in acetone [2]	Solubility in water [2]	Ionisation state [3]	Effectiveness versus Enzalutamide [4]
about 36 mg per 1 ml	about 36 mg per 1 ml	CNC(=O)c1ccc(N2C(=S)N(c3ccc(C#N)c(C(F)(F)F)c3)C(=O)C2(C)C)cc1F [Enzalutamide, 4-{3-[4-Cyano-3-(trifluoromethyl)phenyl]-5,5-dimethyl-4-oxo-2-thioxoimidazolidin-1-yl}-2-fluoro-N-methylbenzamide]	soluble	sparingly soluble	soluble	practically insoluble	remain unionized	–
–	–	CNC(=O)c1ccc(N2C(=S)N(c3cnc(C#N)c(C(F)(F)F)c3)C(=O)C23CCC3)cc1F [ARN-509, 4-[7-[6-Cyano-5-(trifluoromethyl)pyridin-3-yl]-8-oxo-6-thioxo-5,7-diazaspiro[3.4]octan-5-yl]-2-fluoro-N-methylbenzamide]	soluble	sparingly soluble	soluble	practically insoluble	remain unionized	more effective than Enzalutamide
